According to paper PMC10008561 (Nature Communications, 2023):
“And” between values parts separate entries of the source, which are not always exact repeats. Equal entries are not always repeated. Where two headings read alike, the source gives them in different places.

Columns and labels:
human KOR (β-arrestin 2) [1] = target: T1, human KOR (β-arrestin 2) (Homo sapiens, UniProt P41145, N141A); experiment: cell-based; settings: HEK-293T
T1 construct: expressed in transfected cells; host or cells: HEK293T
T1 sequence (P41145 whole entry N141A): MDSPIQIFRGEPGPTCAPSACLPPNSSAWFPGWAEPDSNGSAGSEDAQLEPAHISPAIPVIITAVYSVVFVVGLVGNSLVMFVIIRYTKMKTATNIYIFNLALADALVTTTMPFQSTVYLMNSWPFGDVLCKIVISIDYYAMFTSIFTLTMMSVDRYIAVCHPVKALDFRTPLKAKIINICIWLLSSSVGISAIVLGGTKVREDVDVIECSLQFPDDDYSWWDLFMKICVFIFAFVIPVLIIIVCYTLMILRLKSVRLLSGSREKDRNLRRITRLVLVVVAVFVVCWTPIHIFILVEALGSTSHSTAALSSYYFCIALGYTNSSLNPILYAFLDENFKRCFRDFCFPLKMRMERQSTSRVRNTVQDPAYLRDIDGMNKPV

human KOR (β-arrestin 2) [2] = target: T2, human KOR (β-arrestin 2) (Homo sapiens, UniProt P41145, Y320L); experiment: cell-based; settings: HEK-293T
T2 construct: expressed in transfected cells; host or cells: HEK293T
T2 sequence (P41145 whole entry Y320L): as the sequence (P41145 whole entry N141A) above, with A141N, Y320L counted along it

human KOR (β-arrestin 2) [3] = target: T3, human KOR (β-arrestin 2) (Homo sapiens, UniProt P41145, N322A); experiment: cell-based; settings: HEK-293T
T3 construct: expressed in transfected cells; host or cells: HEK293T
T3 sequence (P41145 whole entry N322A): as the sequence (P41145 whole entry N141A) above, with A141N, N322A counted along it

human KOR (β-arrestin 2) [4] = target: T4, human KOR (β-arrestin 2) (Homo sapiens, UniProt P41145, Y139L); experiment: cell-based; settings: HEK-293T
T4 construct: expressed in transfected cells; host or cells: HEK293T
T4 sequence (P41145 whole entry Y139L): as the sequence (P41145 whole entry N141A) above, with Y139L, A141N counted along it

human KOR (β-arrestin 2) [5] = target: T5, human KOR (β-arrestin 2) (Homo sapiens, UniProt P41145, D266A); experiment: cell-based; settings: HEK-293T
T5 construct: expressed in transfected cells; host or cells: HEK293T
T5 sequence (P41145 whole entry D266A): as the sequence (P41145 whole entry N141A) above, with A141N, D266A counted along it

human KOR (β-arrestin 2) [6] = target: T6, human KOR (β-arrestin 2) (Homo sapiens, UniProt P41145); experiment: cell-based
T6 construct: expressed in transfected cells; host or cells: HEK293T
T6 sequence (P41145 whole entry): as the sequence (P41145 whole entry N141A) above, with A141N counted along it

human KOR (β-arrestin 2) [7] = target: T7, human KOR (β-arrestin 2) (Homo sapiens, UniProt P41145, L253A); experiment: cell-based; settings: HEK-293T
T7 construct: expressed in transfected cells; host or cells: HEK293T
T7 sequence (P41145 whole entry L253A): as the sequence (P41145 whole entry N141A) above, with A141N, L253A counted along it

human KOR (β-arrestin 2) [8] = target: T8, human KOR (β-arrestin 2) (Homo sapiens, UniProt P41145, R271A); experiment: cell-based; settings: HEK-293T
T8 construct: expressed in transfected cells; host or cells: HEK293T
T8 sequence (P41145 whole entry R271A): as the sequence (P41145 whole entry N141A) above, with A141N, R271A counted along it

human KOR (β-arrestin 2) [9] = target: T9, human KOR (β-arrestin 2) (Homo sapiens, UniProt P41145, D334A); experiment: cell-based; settings: HEK-293T
T9 construct: expressed in transfected cells; host or cells: HEK293T
T9 sequence (P41145 whole entry D334A): as the sequence (P41145 whole entry N141A) above, with A141N, D334A counted along it

KOR [10] = system: KOR; set-up: method as in Cao et al., ACS Chem Neuro 2020; settings: ref Cao et al., ACS Chem Neuro 2020; cited from earlier work
human KOR = human KOR (Homo sapiens, UniProt P41145); experiment: cell-based; set-up: expressed in transfected cells; host or cells: HEK 293T (ATCC, CRL-3216); settings: HEK-293T
Sequence of human KOR (P41145 whole entry): as the sequence (P41145 whole entry N141A) above, with A141N counted along it

KOR [11] = experiment: Bias factor, Gz vs β-arrestin2 (BRET), U50,488 as reference; type: cell-based, human
human KOR (Gi2) [12] = target: T10, human KOR (Gi2) (Homo sapiens, UniProt P41145, G319L); experiment: cell-based
T10 construct: expressed in transfected cells; host or cells: HEK293T
T10 sequence (P41145 whole entry G319L): as the sequence (P41145 whole entry N141A) above, with A141N, G319L counted along it

human KOR (Gi2) [13] = target: T11, human KOR (Gi2) (Homo sapiens, UniProt P41145, L253A); experiment: cell-based
T11 construct: expressed in transfected cells; host or cells: HEK293T
T11 sequence (P41145 whole entry L253A): as the sequence (P41145 whole entry N141A) above, with A141N, L253A counted along it

human KOR (Gi2) [14] = target: T12, human KOR (Gi2) (Homo sapiens, UniProt P41145, Y139L); experiment: cell-based
T12 construct: expressed in transfected cells; host or cells: HEK293T
T12 sequence (P41145 whole entry Y139L): as the sequence (P41145 whole entry N141A) above, with Y139L, A141N counted along it

human KOR (Gi2) [15] = target: T13, human KOR (Gi2) (Homo sapiens, UniProt P41145, Y320L); experiment: cell-based
T13 construct: expressed in transfected cells; host or cells: HEK293T
T13 sequence (P41145 whole entry Y320L): as the sequence (P41145 whole entry N141A) above, with A141N, Y320L counted along it

human KOR (Gi2) [16] = target: T14, human KOR (Gi2) (Homo sapiens, UniProt P41145, K227A); experiment: cell-based
T14 construct: expressed in transfected cells; host or cells: HEK293T
T14 sequence (P41145 whole entry K227A): as the sequence (P41145 whole entry N141A) above, with A141N, K227A counted along it

human KOR (Gi2) [17] = target: T15, human KOR (Gi2) (Homo sapiens, UniProt P41145, N141A); experiment: cell-based
T15 construct: expressed in transfected cells; host or cells: HEK293T
T15 sequence (P41145 whole entry N141A): as the sequence (P41145 whole entry N141A) above

human KOR (Gi2) [18] = target: T16, human KOR (Gi2) (Homo sapiens, UniProt P41145, K200A); experiment: cell-based
T16 construct: expressed in transfected cells; host or cells: HEK293T
T16 sequence (P41145 whole entry K200A): as the sequence (P41145 whole entry N141A) above, with A141N, K200A counted along it

human KOR (Gi2) [19] = target: T17, human KOR (Gi2) (Homo sapiens, UniProt P41145, R271A); experiment: cell-based
T17 construct: expressed in transfected cells; host or cells: HEK293T
T17 sequence (P41145 whole entry R271A): as the sequence (P41145 whole entry N141A) above, with A141N, R271A counted along it

human KOR (Gi2) [20] = target: T18, human KOR (Gi2) (Homo sapiens, UniProt P41145, R170A); experiment: cell-based; settings: HEK-293T
T18 construct: expressed in transfected cells; host or cells: HEK293T
T18 sequence (P41145 whole entry R170A): as the sequence (P41145 whole entry N141A) above, with A141N, R170A counted along it

KOR K227A = KOR K227A (Homo sapiens, UniProt P41145, K227A); type: cell-based; set-up: expressed in transfected cells; host or cells: HEK 293T (ATCC, CRL-3216); settings: Log [Drug]
Sequence of KOR K227A (P41145 whole entry K227A): as the sequence (P41145 whole entry N141A) above, with A141N, K227A counted along it

KOR Q115N = KOR Q115N (Homo sapiens, UniProt P41145, Q115N); experiment: cell-based; set-up: expressed in transfected cells; host or cells: HEK 293T (ATCC, CRL-3216); settings: read-out: cAMP response (Figure S4C), KOR Q115N, Log [Drug], replicate values
Sequence of KOR Q115N (P41145 whole entry Q115N): as the sequence (P41145 whole entry N141A) above, with Q115N, A141N counted along it

[21] = read-out: KOR WT_Gi response (Figure S4D)
[22] = read-out: cAMP response (Figure S4C)

CN(C(=O)/C=C/c1ccoc1)[C@@H]1CC[C@@]2(O)[C@H]3Cc4ccc(O)c5c4[C@@]2(CCN3CC2CC2)[C@H]1O5 [Nalfurafine, nalfurafine]
Emax (human KOR (β-arrestin 2) [1]): 90.6%
Emax (human KOR (β-arrestin 2) [2]): 65.9%
Emax (human KOR (β-arrestin 2) [3]): 87.1%
Emax (human KOR (β-arrestin 2) [4]): 113%
Emax (human KOR (β-arrestin 2) [5]): 101%
Emax% (human KOR (β-arrestin 2) [6]): 80%
Emax (human KOR (β-arrestin 2) [6]; HEK-293T): 100 ± 4%
Emax (human KOR (β-arrestin 2) [7]): 107%
Emax (human KOR (β-arrestin 2) [8]): 101 ± 8.2%
Emax (human KOR (β-arrestin 2) [9]): 78%
bias factor toward G protein signaling (KOR [10]): 4.5
Emax (human KOR): 100 ± 2%
activation at 1 pM (human KOR; [21]): 34.6%
activation at 3.162 pM (human KOR; [21]): 50.4%
activation at 10 pM (human KOR; [21]): 75.7%
activation at 31.62 pM (human KOR; [21]): 89.3%
activation at 0.0001 µM (human KOR; [21]): 97.6%
activation at 0.001 µM (human KOR; [21]): 96.5%
activation at 0.1 µM (human KOR; [21]): 103%
activation at 1 µM (human KOR; [21]): 100%
activation at […] (human KOR; [21]): 94.1% and 99.5% and 96.9%
activation at 1 pM (human KOR; read-out: cAMP response): 42.4%
activation at 3.162 pM (human KOR; read-out: cAMP response): 56.3%
activation at 10 pM (human KOR; read-out: cAMP response): 78.7%
activation at 31.62 pM (human KOR; read-out: cAMP response): 90.8%
activation at 0.0001 µM (human KOR; read-out: cAMP response): 98.1%
activation at 0.001 µM (human KOR; read-out: cAMP response): 97.1%
activation at 0.1 µM (human KOR; read-out: cAMP response): 103%
activation at 1 µM (human KOR; read-out: cAMP response): 101%
activation at […] (human KOR; read-out: cAMP response): 95% (2×) and 99.8% and 97.5%
activation at 1 pM (human KOR; [22]): 34.6%
activation at 3.162 pM (human KOR; [22]): 50.4%
activation at 10 pM (human KOR; [22]): 75.7%
activation at 31.62 pM (human KOR; [22]): 89.3%
activation at 0.0001 µM (human KOR; [22]): 97.6%
activation at 0.001 µM (human KOR; [22]): 96.5%
activation at 0.1 µM (human KOR; [22]): 103%
activation at 1 µM (human KOR; [22]): 100%
activation at […] (human KOR; [22]): 94.1% and 99.5% and 96.9%
bias factor towards Gz protein (KOR [11]): 4.8
FC vs wild type (human KOR (Gi2) [12]): 17
Emax (human KOR (Gi2) [12]; HEK-293T): 116%
FC vs wild type (human KOR (Gi2) [13]): 87 and 100
Emax (human KOR (Gi2) [13]; HEK-293T): 105%
FC vs wild type (human KOR (Gi2) [14]): 1
FC vs wild type (human KOR (Gi2) [15]): 186
Emax (human KOR (Gi2) [15]; HEK-293T): 89.3%
FC vs wild type (human KOR (Gi2) [16]): 1
Emax (human KOR (Gi2) [16]; HEK-293T): 101%
FC vs wild type (human KOR (Gi2) [17]): 7
Emax (human KOR (Gi2) [17]; HEK-293T): 103%
FC vs wild type (human KOR (Gi2) [18]): 2
Emax (human KOR (Gi2) [18]; HEK-293T): 104%
FC vs wild type (human KOR (Gi2) [19]): 112
Emax (human KOR (Gi2) [19]; HEK-293T): 106%
Emax (human KOR (Gi2) [20]): 57.6%
KOR K227A_Gi response (Figure S4D) (KOR K227A; M -6, replicate values): 107.002 and 103.527 and 102.568
KOR K227A_Gi response (Figure S4D) (KOR K227A; M -6.5, replicate values): 98.0139 and 98.733 and 102.808
KOR K227A_Gi response (Figure S4D) (KOR K227A; M -7, replicate values): 101.489 and 104.366 and 102.568
KOR K227A_Gi response (Figure S4D) (KOR K227A; M -7.5, replicate values): 98.3734 and 96.4559 and 94.5383
KOR K227A_Gi response (Figure S4D) (KOR K227A; M -8, replicate values): 100.531 and 98.0139
KOR K227A_Gi response (Figure S4D) (KOR K227A; M -8.5, replicate values): 99.8116 and 103.767 and 98.2536
KOR K227A_Gi response (Figure S4D) (KOR K227A; M -9, replicate values): 96.9353 and 103.167 and 100.291
KOR K227A_Gi response (Figure S4D) (KOR K227A; M -9.5, replicate values): 98.9727 and 99.5719 and 95.8566
KOR K227A_Gi response (Figure S4D) (KOR K227A; M -10, replicate values): 99.3322 and 106.283 and 99.5719
KOR K227A_Gi response (Figure S4D) (KOR K227A; M -10.5, replicate values): 95.9765 and 94.778 and 93.8193
KOR K227A_Gi response (Figure S4D) (KOR K227A; M -11, replicate values): 90.7033 and 96.5757 and 95.2574
KOR K227A_Gi response (Figure S4D) (KOR K227A; M -12, replicate values): 68.1721 and 73.8049 and 67.4531
KOR K227A_Gi response (Figure S4D) (KOR K227A; M -12.5, replicate values): 37.1319 and 43.2441 and 45.1616
KOR K227A_Gi response (Figure S4D) (KOR K227A; M -13, replicate values): 12.6833 and 10.4062
KOR K227A_Gi response (Figure S4D) (KOR K227A; M -14, replicate values): 6.331 and 5.612 and 17.3573
activation at 1 µM (KOR Q115N; M -6): 99.3%
activation at […] (KOR Q115N; M -6.5): 94.1%
activation at 0.1 µM (KOR Q115N; M -7): 101%
activation at […] (KOR Q115N; M -7.5): 96.7%
activation at 0.01 µM (KOR Q115N; M -8): 100%
activation at […] (KOR Q115N; M -8.5): 91.3%
activation at 0.001 µM (KOR Q115N; M -9): 89.3%
activation at […] (KOR Q115N; M -9.5): 82.2%
activation at 0.0001 µM (KOR Q115N; M -10): 67.6%
activation at 10 pM (KOR Q115N; M -11): 7.51%
